Source: patent US20250270200A1, “CTPS1 INHIBITORS AND USES THEREOF” (Nimbus Clotho, Inc., priority 2022, published 2025)
Counter-ions that a name gives are not always drawn.

Target: T1, human CTPS1 (Homo sapiens, UniProt P17812)
T1 sequence (P17812 1-591): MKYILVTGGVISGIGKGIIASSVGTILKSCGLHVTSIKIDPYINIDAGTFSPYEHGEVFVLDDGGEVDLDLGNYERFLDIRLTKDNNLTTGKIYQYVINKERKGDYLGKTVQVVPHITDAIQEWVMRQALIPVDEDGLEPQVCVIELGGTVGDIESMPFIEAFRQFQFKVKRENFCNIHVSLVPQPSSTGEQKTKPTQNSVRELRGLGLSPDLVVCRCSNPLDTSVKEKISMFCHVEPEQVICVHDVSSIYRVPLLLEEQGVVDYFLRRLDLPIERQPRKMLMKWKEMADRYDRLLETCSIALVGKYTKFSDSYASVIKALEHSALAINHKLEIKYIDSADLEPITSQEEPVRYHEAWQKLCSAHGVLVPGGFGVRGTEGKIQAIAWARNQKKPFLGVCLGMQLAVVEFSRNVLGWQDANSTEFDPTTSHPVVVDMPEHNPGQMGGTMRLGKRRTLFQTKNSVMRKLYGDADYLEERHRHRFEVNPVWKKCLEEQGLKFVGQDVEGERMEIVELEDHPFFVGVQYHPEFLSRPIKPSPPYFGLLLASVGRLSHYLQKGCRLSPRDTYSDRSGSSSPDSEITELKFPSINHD
Test: ADP-Glo assay, human CTPS1 enzyme inhibition
Type: biochemical
Conditions: wild-type human CTPS1, 25 nM enzyme; ADP-Glo; read-out: ADP-Glo_WT_hCTPS1—25 nM_IC50 (IC50)
Summary of the method: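 Full-length tagged human CTPS1 (25 nM) pre-incubated 10 min at 25° C with compound, then 10 min with ATP (120 μM) and UTP (160 μM); reaction started with L-glutamine (100 μM) and GTP (60 μM), 1% DMSO, in HEPES pH 7.4, 10 mM Mg2+, 5 mM KCl, 2 mM DTT. Run within linear phase at 25° C; ADP measured by ADP-Glo luminescence.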

| Structure (SMILES) | IC50 [nM] |
| --- | --- |
| CCOc1cncc(-c2cnc(C(=O)N[C@@H](c3cccc(NS(=O)(=O)C(F)F)c3)[C@@H](C)CO)s2)n1 [I-244, N-((1R,2R)-1-(3-((difluoromethyl)sulfonamido)phenyl)-3-hydroxy-2-methylpropyl)-5-(6-ethoxypyrazin-2-yl)thiazole-2-carboxamide] | ≤ 5 |
| CCOc1cncc(-c2cnc(C(=O)N[C@@H](c3cccc(NS(=O)(=O)C(F)F)c3)[C@H](C)CO)s2)n1 [I-245, N-((1R,2S)-1-(3-((difluoromethyl)sulfonamido)phenyl)-3-hydroxy-2-methylpropyl)-5-(6-ethoxypyrazin-2-yl)thiazole-2-carboxamide] | ≤ 5 |
| CCOc1cncc(-c2cnc(C(=O)N[C@@H](CN3CCOCC3)c3cc(NS(=O)(=O)C4CC4)ncn3)s2)n1 [I-246, (S)-N-(1-(6-(cyclopropanesulfonamido)pyrimidin-4-yl)-2-morpholinoethyl)-5-(6-ethoxypyrazin-2-yl)thiazole-2-carboxamide] | 5 to 25 |
| CCOc1cncc(-c2cnc(C(=O)N[C@@H](CN3CCN(C4CC4)CC3)c3cc(NS(=O)(=O)C4CC4)ncn3)s2)n1 [I-248, (S)-N-(1-(6-(cyclopropanesulfonamido)pyrimidin-4-yl)-2-(4-cyclopropylpiperazin-1-yl)ethyl)-5-(6-ethoxypyrazin-2-yl)thiazole-2-carboxamide] | 25 to 50 |
| CCOc1cncc(-c2cnc(C(=O)N[C@H](CN3CCN(C4CC4)CC3)c3cc(NS(=O)(=O)C4CC4)ncn3)s2)n1 [I-249, (R)-N-(1-(6-(cyclopropanesulfonamido)pyrimidin-4-yl)-2-(4-cyclopropylpiperazin-1-yl)ethyl)-5-(6-ethoxypyrazin-2-yl)thiazole-2-carboxamide] | 25 to 50 |
| CCOc1cncc(-c2cnc(C(=O)N[C@@H](CN3CCCC3)c3cc(NS(=O)(=O)C4CC4)ncn3)s2)n1 [I-250, (S)-N-(1-(6-(cyclopropanesulfonamido)pyrimidin-4-yl)-2-(pyrrolidin-1-yl)ethyl)-5-(6-ethoxypyrazin-2-yl)thiazole-2-carboxamide] | 25 to 50 |

Second part, the compound after the results:

| IC50 [nM] | Structure (SMILES) |
| --- | --- |
| 25 to 50 | CCOc1cncc(-c2cnc(C(=O)N[C@H](CN3CCCC3)c3cc(NS(=O)(=O)C4CC4)ncn3)s2)n1 [I-251, (R)-N-(1-(6-(cyclopropanesulfonamido)pyrimidin-4-yl)-2-(pyrrolidin-1-yl)ethyl)-5-(6-ethoxypyrazin-2-yl)thiazole-2-carboxamide] |
| 25 to 50 | CCOc1cncc(-c2cnc(C(=O)N[C@@H](CN3C[C@H]4C[C@@H]3CO4)c3cncc(NS(=O)(=O)C4CC4)n3)s2)n1 [I-252, N-((S)-2-((1R,4R)-2-oxa-5-azabicyclo[2.2.1]heptan-5-yl)-1-(6-(cyclopropanesulfonamido)pyrazin-2-yl)ethyl)-5-(6-ethoxypyrazin-2-yl)thiazole-2-carboxamide, formic acid salt] |
| 50 to 100 | CCOc1cncc(-c2cnc(C(=O)N[C@H](CN3C[C@H]4C[C@@H]3CO4)c3cncc(NS(=O)(=O)C4CC4)n3)s2)n1 [I-253, N-((R)-2-((1R,4R)-2-oxa-5-azabicyclo[2.2.1]heptan-5-yl)-1-(6-(cyclopropanesulfonamido)pyrazin-2-yl)ethyl)-5-(6-ethoxypyrazin-2-yl)thiazole-2-carboxamide, formic acid salt] |
| 5 to 25 | CCOc1cncc(-c2cnc(C(=O)N[C@H](c3cc(NS(=O)(=O)C4CC4)ncn3)[C@@H]3CCOC3)s2)n1 [I-256, N-((S)-(6-(cyclopropanesulfonamido)pyrimidin-4-yl)((S)-tetrahydrofuran-3-yl)methyl)-5-(6-ethoxypyrazin-2-yl)thiazole-2-carboxamide] |
| 5 to 25 | CCOc1cncc(-c2cnc(C(=O)N[C@@H](c3cc(NS(=O)(=O)C4CC4)ncn3)[C@@H]3CCOC3)s2)n1 [I-257, N-((R)-(6-(cyclopropanesulfonamido)pyrimidin-4-yl)((S)-tetrahydrofuran-3-yl)methyl)-5-(6-ethoxypyrazin-2-yl)thiazole-2-carboxamide] |
